Reference: PubChem BioAssay (NCI)
Where “and” joins values, the source holds several entries; their conditions need not be identical. Equal entries are not always repeated.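 Following 48 hours of exposure in 96-well plates, responses at five concentrations were used to interpolate endpoints linearly. At the GI50, growth is halved. The concentration for full growth arrest is given as TGI.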

What was measured:
Experiment in all cases: NCI tumour cell line growth inhibition, 48 h
[1] = tested on: SNB-19 CNS
[2] = tested on: IGROV1 ovarian
[3] = tested on: P388 leukemia
[4] = tested on: SK-MEL-5 melanoma
[5] = tested on: KM12 colon
[6] = tested on: HL-60(TB) leukemia
[7] = tested on: CCRF-CEM leukemia
[8] = tested on: SN12C renal
[9] = tested on: OVCAR-8 ovarian
[10] = tested on: XF 498 CNS
[11] = tested on: KM20L2 colon
[12] = tested on: NCI/ADR-RES ovarian
[13] = tested on: SNB-78 CNS
[14] = tested on: DMS 273 small cell lung
[15] = tested on: MCF7 breast
[16] = tested on: OVCAR-5 ovarian
[17] = tested on: RPMI-8226 leukemia
[18] = tested on: COLO 205 colon
[19] = tested on: P388/ADR leukemia
[20] = tested on: NCI-H460 lung
[21] = tested on: HOP-62 NSCLC
[22] = tested on: U251 CNS
[23] = tested on: SF-539 CNS
[24] = tested on: UACC-257 melanoma
[25] = tested on: HCC-2998 colon
[26] = tested on: EKVX NSCLC
[27] = tested on: UACC-62 melanoma
[28] = tested on: SF-268 CNS
[29] = tested on: CAKI-1 renal
[30] = tested on: DLD-1 colon
[31] = tested on: RXF 393 renal
[32] = tested on: LOX IMVI melanoma
[33] = tested on: SN12K1 renal
[34] = tested on: HT29 colon
[35] = tested on: SF-295 CNS
[36] = tested on: HOP-18 NSCLC
[37] = tested on: HCT-116 colon
[38] = tested on: SK-MEL-28 melanoma
[39] = tested on: OVCAR-4 ovarian
[40] = tested on: A498 renal
[41] = tested on: MALME-3M melanoma
[42] = tested on: HCT-15 colon
[43] = tested on: HOP-92 NSCLC
[44] = tested on: M19-MEL melanoma
[45] = tested on: OVCAR-3 ovarian
[46] = tested on: MOLT-4 leukemia
[47] = tested on: NCI-H226 lung
[48] = tested on: NCI-H23 lung
[49] = tested on: SNB-75 CNS
[50] = tested on: NCI-H522 lung
[51] = tested on: K-562 leukemia
[52] = tested on: SW-620 colon
[53] = tested on: SK-MEL-2 melanoma
[54] = tested on: A549 NSCLC
[55] = tested on: SK-OV-3 ovarian
[56] = tested on: UO-31 renal
[57] = tested on: M14 melanoma
[58] = tested on: LXFL 529 NSCLC
[59] = tested on: ACHN renal
[60] = tested on: RXF-631 renal
[61] = tested on: DMS 114 small cell lung
[62] = tested on: SR leukemia
[63] = tested on: 786-0 renal
[64] = tested on: TK-10 renal

`COc1cc(/C=C(\C#N)C(N)=O)cc(Br)c1O` was tested, and the TGI [1] was over 100 µM, the TGI [2] was over 100 µM and the GI50 [3] was 85.3 µM and 44.5 µM. It also gave a TGI [3] of over 100 µM, a TGI [4] of over 100 µM and a TGI [5] of over 100 µM. For the same compound, the GI50 [6] was 83.8 µM and 59.8 µM, the TGI [6] was over 100 µM and the TGI [7] was over 100 µM. The GI50 [8] was > 100 µM and 34 µM, the TGI [8] was over 100 µM and the TGI [9] was over 100 µM. The TGI [10] was over 100 µM, the TGI [11] was over 100 µM and the TGI [12] was over 100 µM. For the same compound, the TGI [13] was over 100 µM, the TGI [14] was over 100 µM and the TGI [15] was over 100 µM. The TGI [16] was over 100 µM, the TGI [17] was over 100 µM and the GI50 [18] was 73.8 µM and > 100 µM. For the same compound, the TGI [18] was over 100 µM, the TGI [19] was over 100 µM and the TGI [20] was over 100 µM. For the same compound, the TGI [21] was over 100 µM, the TGI [22] was over 100 µM and the TGI [23] was over 100 µM. The TGI [24] was over 100 µM, the TGI [25] was over 100 µM and the GI50 [26] was 45.8 µM and > 100 µM. For the same compound, the TGI [26] was over 100 µM, the GI50 [27] was 35.9 µM and > 100 µM and the TGI [27] was over 100 µM. The TGI [28] was over 100 µM, the TGI [29] was over 100 µM and the TGI [30] was over 100 µM. The TGI [31] was over 100 µM, the TGI [32] was 59.2 µM and > 100 µM and the TGI [33] was over 100 µM. The TGI [34] was over 100 µM, the TGI [35] was over 100 µM and the TGI [36] was over 100 µM. For the same compound, the TGI [37] was over 100 µM, the TGI [38] was over 100 µM and the TGI [39] was over 100 µM. The GI50 [40] was > 100 µM and 60.3 µM, the TGI [40] was over 100 µM and the TGI [41] was over 100 µM. For the same compound, the TGI [42] was over 100 µM, the GI50 [43] was 21.8 µM and > 100 µM and the TGI [43] was 93.3 µM and > 100 µM. The TGI [44] was over 100 µM, the TGI [45] was over 100 µM and the TGI [46] was over 100 µM. The TGI [47] was over 100 µM, the GI50 [48] was 43 µM and > 100 µM and the TGI [48] was over 100 µM. The TGI [49] was 14.4 µM and > 100 µM, the GI50 [50] was 15.7 µM and 28.9 µM and the TGI [50] was 35.4 µM and 87.3 µM. For the same compound, the GI50 [51] was 32.1 µM and 43.2 µM, the TGI [51] was over 100 µM and the TGI [52] was over 100 µM. For the same compound, the TGI [53] was over 100 µM, the TGI [54] was over 100 µM and the TGI [55] was over 100 µM. For the same compound, the TGI [56] was over 100 µM.

Compound `NC(N)=N/N=C(\c1nc2ccc([N+](=O)[O-])cc2[nH]c1=O)C(O)c1ccc([N+](=O)[O-])cc1` (configuration not stated) has a TGI [1] of over 100 µM, a TGI [2] of over 100 µM and a TGI [4] of over 100 µM. The TGI [5] was over 100 µM, the TGI [6] was over 100 µM and the TGI [57] was over 100 µM. It also gave a TGI [7] of over 100 µM, a TGI [8] of over 100 µM and a TGI [9] of over 100 µM. For the same compound, the TGI [10] was over 100 µM, the TGI [11] was over 100 µM and the TGI [13] was over 100 µM. It also gave a TGI [14] of over 100 µM, a TGI [58] of over 100 µM and a TGI [16] of over 100 µM. The TGI [17] was over 100 µM, the TGI [18] was over 100 µM and the TGI [59] was over 100 µM. For the same compound, the TGI [20] was over 100 µM, the TGI [21] was over 100 µM and the TGI [22] was over 100 µM. The TGI [23] was over 100 µM, the TGI [24] was over 100 µM and the TGI [25] was 79.8 µM. For the same compound, the TGI [27] was over 100 µM, the TGI [28] was over 100 µM and the TGI [60] was over 100 µM. It also gave a TGI [61] of 75 µM, a TGI [29] of over 100 µM and a TGI [30] of over 100 µM. The TGI [62] was over 100 µM, the TGI [31] was over 100 µM and the TGI [32] was over 100 µM. It also gave a TGI [63] of over 100 µM, a TGI [34] of over 100 µM and a TGI [35] of over 100 µM. The TGI [37] was over 100 µM, the TGI [38] was over 100 µM and the TGI [39] was over 100 µM. The TGI [41] was over 100 µM, the TGI [42] was over 100 µM and the TGI [43] was over 100 µM. It also gave a TGI [44] of over 100 µM, a TGI [45] of over 100 µM and a TGI [46] of over 100 µM. For the same compound, the TGI [47] was over 100 µM, the TGI [48] was over 100 µM and the TGI [49] was over 100 µM. For the same compound, the TGI [50] was 89.6 µM, the TGI [51] was over 100 µM and the TGI [52] was over 100 µM. For the same compound, the TGI [54] was over 100 µM, the TGI [55] was over 100 µM and the TGI [56] was over 100 µM.

Compound `O=P(Nc1ccc(Cl)cc1)(Oc1ccccc1)N(CCCl)CCCl` (configuration not stated) has a TGI [2] of over 100 µM, a TGI [4] of over 100 µM and a TGI [5] of over 100 µM. It also gave a TGI [57] of over 100 µM, a TGI [7] of over 100 µM and a TGI [8] of over 100 µM. It also gave a TGI [9] of over 100 µM, a TGI [11] of over 100 µM and a TGI [13] of over 100 µM. It also gave a TGI [14] of over 100 µM, a TGI [58] of over 100 µM and a TGI [16] of over 100 µM. It also gave a TGI [18] of over 100 µM, a TGI [59] of over 100 µM and a TGI [21] of over 100 µM. It also gave a TGI [22] of over 100 µM, a TGI [23] of over 100 µM and a TGI [24] of over 100 µM. The TGI [25] was over 100 µM, the TGI [26] was over 100 µM and the TGI [27] was over 100 µM. The TGI [28] was over 100 µM, the TGI [60] was over 100 µM and the TGI [61] was over 100 µM. For the same compound, the TGI [29] was over 100 µM, the TGI [30] was over 100 µM and the TGI [62] was over 100 µM. For the same compound, the TGI [34] was over 100 µM, the TGI [35] was over 100 µM and the TGI [36] was over 100 µM. It also gave a TGI [37] of over 100 µM, a TGI [38] of over 100 µM and a TGI [39] of over 100 µM. The TGI [40] was over 100 µM, the TGI [41] was over 100 µM and the TGI [64] was over 100 µM. For the same compound, the TGI [42] was over 100 µM, the TGI [43] was over 100 µM and the TGI [44] was over 100 µM. The TGI [45] was over 100 µM, the TGI [46] was over 100 µM and the TGI [47] was over 100 µM. It also gave a TGI [48] of over 100 µM, a TGI [49] of over 100 µM and a TGI [50] of over 100 µM. It also gave a TGI [51] of over 100 µM, a TGI [52] of over 100 µM and a TGI [53] of over 100 µM. For the same compound, the TGI [54] was over 100 µM, the TGI [55] was over 100 µM and the TGI [56] was over 100 µM.
